# Assay: Clinical study on safety in patients with HER2+ MBC
# Format: in vivo, human
# Source text: […] All patients had prior anti-HER2 antibody and chemotherapy treatment. Majority of patients ([…]) also had prior anti-HER2 small molecule treatment.
# [1] = 100 mg (N = 4), CTCAE Grade All
# [2] = 200 mg (N = 5), CTCAE Grade All
# [3] = HER2+ MBC patients, oral twice daily, doses tested
# [4] = Total (N = 14), CTCAE Grade All
smiles,measurement,setting,value
"COc1cc(O[C@H]2CCN(C)CC2(F)F)c2c(Nc3ccc(Oc4ccn5ncnc5c4)c(C)c3)ncnc2c1 (single isomer, unassigned) [Compound 6]","TEAE Anaemia, patients","25 mg (N = 1), CTCAE Grade All",0
same,"TEAE Aspartate aminotransferase increased, patients","25 mg (N = 1), CTCAE Grade All",0
same,"TEAE Bilirubin conjugated increased, patients","25 mg (N = 1), CTCAE Grade All",0
same,"TEAE Blood bilirubin increased, patients","25 mg (N = 1), CTCAE Grade All",1
same,"TEAE Blood bilirubin unconjugated increased, patients","25 mg (N = 1), CTCAE Grade All",1
same,"TEAE Blood creatinine increased, patients","25 mg (N = 1), CTCAE Grade All",0
same,"TEAE Fatigue, patients","25 mg (N = 1), CTCAE Grade All",0
same,"TEAE Haemoglobin decreased, patients","25 mg (N = 1), CTCAE Grade All",0
same,"TEAE Headache, patients","25 mg (N = 1), CTCAE Grade All",0
same,"TEAE Lipase increased, patients","25 mg (N = 1), CTCAE Grade All",0
same,"TEAE Pain, patients","25 mg (N = 1), CTCAE Grade All",0
same,"TEAE Platelet count decreased, patients","25 mg (N = 1), CTCAE Grade All",0
same,"TEAE Proteinuria, patients","25 mg (N = 1), CTCAE Grade All",0
same,"TEAE Vomiting, patients","25 mg (N = 1), CTCAE Grade All",0
same,"TEAE Anaemia, patients","25 mg (N = 1), CTCAE Grade ≥3",0
same,"TEAE Aspartate aminotransferase increased, patients","25 mg (N = 1), CTCAE Grade ≥3",0
same,"TEAE Bilirubin conjugated increased, patients","25 mg (N = 1), CTCAE Grade ≥3",0
same,"TEAE Blood bilirubin increased, patients","25 mg (N = 1), CTCAE Grade ≥3",0
same,"TEAE Blood bilirubin unconjugated increased, patients","25 mg (N = 1), CTCAE Grade ≥3",0
same,"TEAE Blood creatinine increased, patients","25 mg (N = 1), CTCAE Grade ≥3",0
same,"TEAE Fatigue, patients","25 mg (N = 1), CTCAE Grade ≥3",0
same,"TEAE Haemoglobin decreased, patients","25 mg (N = 1), CTCAE Grade ≥3",0
same,"TEAE Headache, patients","25 mg (N = 1), CTCAE Grade ≥3",0
same,"TEAE Lipase increased, patients","25 mg (N = 1), CTCAE Grade ≥3",0
same,"TEAE Pain, patients","25 mg (N = 1), CTCAE Grade ≥3",0
same,"TEAE Platelet count decreased, patients","25 mg (N = 1), CTCAE Grade ≥3",0
same,"TEAE Proteinuria, patients","25 mg (N = 1), CTCAE Grade ≥3",0
same,"TEAE Vomiting, patients","25 mg (N = 1), CTCAE Grade ≥3",0
same,"TEAE Anaemia, patients","50 mg (N = 4), CTCAE Grade All",1
same,"TEAE Aspartate aminotransferase increased, patients","50 mg (N = 4), CTCAE Grade All",1
same,"TEAE Bilirubin conjugated increased, patients","50 mg (N = 4), CTCAE Grade All",0
same,"TEAE Blood bilirubin increased, patients","50 mg (N = 4), CTCAE Grade All",0
same,"TEAE Blood bilirubin unconjugated increased, patients","50 mg (N = 4), CTCAE Grade All",0
same,"TEAE Blood creatinine increased, patients","50 mg (N = 4), CTCAE Grade All",1
same,"TEAE Fatigue, patients","50 mg (N = 4), CTCAE Grade All",0
same,"TEAE Haemoglobin decreased, patients","50 mg (N = 4), CTCAE Grade All",1
same,"TEAE Headache, patients","50 mg (N = 4), CTCAE Grade All",1
same,"TEAE Lipase increased, patients","50 mg (N = 4), CTCAE Grade All",2
same,"TEAE Pain, patients","50 mg (N = 4), CTCAE Grade All",1
same,"TEAE Platelet count decreased, patients","50 mg (N = 4), CTCAE Grade All",1
same,"TEAE Proteinuria, patients","50 mg (N = 4), CTCAE Grade All",1
same,"TEAE Vomiting, patients","50 mg (N = 4), CTCAE Grade All",0
same,"TEAE Anaemia, patients","50 mg (N = 4), CTCAE Grade ≥3",0
same,"TEAE Aspartate aminotransferase increased, patients","50 mg (N = 4), CTCAE Grade ≥3",0
same,"TEAE Bilirubin conjugated increased, patients","50 mg (N = 4), CTCAE Grade ≥3",0
same,"TEAE Blood bilirubin increased, patients","50 mg (N = 4), CTCAE Grade ≥3",0
same,"TEAE Blood bilirubin unconjugated increased, patients","50 mg (N = 4), CTCAE Grade ≥3",0
same,"TEAE Blood creatinine increased, patients","50 mg (N = 4), CTCAE Grade ≥3",0
same,"TEAE Fatigue, patients","50 mg (N = 4), CTCAE Grade ≥3",0
same,"TEAE Haemoglobin decreased, patients","50 mg (N = 4), CTCAE Grade ≥3",0
same,"TEAE Headache, patients","50 mg (N = 4), CTCAE Grade ≥3",0
same,"TEAE Lipase increased, patients","50 mg (N = 4), CTCAE Grade ≥3",0
same,"TEAE Pain, patients","50 mg (N = 4), CTCAE Grade ≥3",0
same,"TEAE Platelet count decreased, patients","50 mg (N = 4), CTCAE Grade ≥3",0
same,"TEAE Proteinuria, patients","50 mg (N = 4), CTCAE Grade ≥3",0
same,"TEAE Vomiting, patients","50 mg (N = 4), CTCAE Grade ≥3",0
same,"TEAE Anaemia, patients",[1],2
same,"TEAE Aspartate aminotransferase increased, patients",[1],0
same,"TEAE Bilirubin conjugated increased, patients",[1],0
same,"TEAE Blood bilirubin increased, patients",[1],0
same,"TEAE Blood bilirubin unconjugated increased, patients",[1],0
same,"TEAE Blood creatinine increased, patients",[1],0
same,"TEAE Fatigue, patients",[1],1
same,"TEAE Haemoglobin decreased, patients",[1],0
same,"TEAE Headache, patients",[1],2
same,"TEAE Lipase increased, patients",[1],0
same,"TEAE Pain, patients",[1],0
same,"TEAE Platelet count decreased, patients",[1],1
same,"TEAE Proteinuria, patients",[1],0
same,"TEAE Vomiting, patients",[1],1
same,"TEAE Anaemia, patients","100 mg (N = 4), CTCAE Grade ≥3",0
same,"TEAE Aspartate aminotransferase increased, patients","100 mg (N = 4), CTCAE Grade ≥3",0
same,"TEAE Bilirubin conjugated increased, patients","100 mg (N = 4), CTCAE Grade ≥3",0
same,"TEAE Blood bilirubin increased, patients","100 mg (N = 4), CTCAE Grade ≥3",0
same,"TEAE Blood bilirubin unconjugated increased, patients","100 mg (N = 4), CTCAE Grade ≥3",0
same,"TEAE Blood creatinine increased, patients","100 mg (N = 4), CTCAE Grade ≥3",0
same,"TEAE Fatigue, patients","100 mg (N = 4), CTCAE Grade ≥3",0
same,"TEAE Haemoglobin decreased, patients","100 mg (N = 4), CTCAE Grade ≥3",0
same,"TEAE Headache, patients","100 mg (N = 4), CTCAE Grade ≥3",0
same,"TEAE Lipase increased, patients","100 mg (N = 4), CTCAE Grade ≥3",0
same,"TEAE Pain, patients","100 mg (N = 4), CTCAE Grade ≥3",0
same,"TEAE Platelet count decreased, patients","100 mg (N = 4), CTCAE Grade ≥3",0
same,"TEAE Proteinuria, patients","100 mg (N = 4), CTCAE Grade ≥3",0
same,"TEAE Vomiting, patients","100 mg (N = 4), CTCAE Grade ≥3",0
same,"TEAE Anaemia, patients",[2],1
same,"TEAE Aspartate aminotransferase increased, patients",[2],1
same,"TEAE Bilirubin conjugated increased, patients",[2],2
same,"TEAE Blood bilirubin increased, patients",[2],2
same,"TEAE Blood bilirubin unconjugated increased, patients",[2],1
same,"TEAE Blood creatinine increased, patients",[2],1
same,"TEAE Fatigue, patients",[2],1
same,"TEAE Haemoglobin decreased, patients",[2],3
same,"TEAE Headache, patients",[2],1
same,"TEAE Lipase increased, patients",[2],1
same,"TEAE Pain, patients",[2],1
same,"TEAE Platelet count decreased, patients",[2],1
same,"TEAE Proteinuria, patients",[2],2
same,"TEAE Vomiting, patients",[2],2
same,"TEAE Anaemia, patients","200 mg (N = 5), CTCAE Grade ≥3",0
same,"TEAE Aspartate aminotransferase increased, patients","200 mg (N = 5), CTCAE Grade ≥3",0
same,"TEAE Bilirubin conjugated increased, patients","200 mg (N = 5), CTCAE Grade ≥3",1
same,"TEAE Blood bilirubin increased, patients","200 mg (N = 5), CTCAE Grade ≥3",0
same,"TEAE Blood bilirubin unconjugated increased, patients","200 mg (N = 5), CTCAE Grade ≥3",0
same,"TEAE Blood creatinine increased, patients","200 mg (N = 5), CTCAE Grade ≥3",0
same,"TEAE Fatigue, patients","200 mg (N = 5), CTCAE Grade ≥3",0
same,"TEAE Haemoglobin decreased, patients","200 mg (N = 5), CTCAE Grade ≥3",0
same,"TEAE Headache, patients","200 mg (N = 5), CTCAE Grade ≥3",0
same,"TEAE Lipase increased, patients","200 mg (N = 5), CTCAE Grade ≥3",0
same,"TEAE Pain, patients","200 mg (N = 5), CTCAE Grade ≥3",0
same,"TEAE Platelet count decreased, patients","200 mg (N = 5), CTCAE Grade ≥3",0
same,"TEAE Proteinuria, patients","200 mg (N = 5), CTCAE Grade ≥3",0
same,"TEAE Vomiting, patients","200 mg (N = 5), CTCAE Grade ≥3",0
same,dose limiting toxicities,[3],no dose limiting toxicities observed
same,tolerability,[3],well tolerated
same,"TEAE Anaemia, patients",[4],4
same,"TEAE Aspartate aminotransferase increased, patients",[4],2
same,"TEAE Bilirubin conjugated increased, patients",[4],2
same,"TEAE Blood bilirubin increased, patients",[4],3
same,"TEAE Blood bilirubin unconjugated increased, patients",[4],2
same,"TEAE Blood creatinine increased, patients",[4],2
same,"TEAE Fatigue, patients",[4],2
same,"TEAE Haemoglobin decreased, patients",[4],4
same,"TEAE Headache, patients",[4],4
same,"TEAE Lipase increased, patients",[4],3
same,"TEAE Pain, patients",[4],2
same,"TEAE Platelet count decreased, patients",[4],3
same,"TEAE Proteinuria, patients",[4],3
same,"TEAE Vomiting, patients",[4],3
same,"TEAE Anaemia, patients","Total (N = 14), CTCAE Grade ≥3",0
same,"TEAE Aspartate aminotransferase increased, patients","Total (N = 14), CTCAE Grade ≥3",0
same,"TEAE Bilirubin conjugated increased, patients","Total (N = 14), CTCAE Grade ≥3",1
same,"TEAE Blood bilirubin increased, patients","Total (N = 14), CTCAE Grade ≥3",0
same,"TEAE Blood bilirubin unconjugated increased, patients","Total (N = 14), CTCAE Grade ≥3",0
same,"TEAE Blood creatinine increased, patients","Total (N = 14), CTCAE Grade ≥3",0
same,"TEAE Fatigue, patients","Total (N = 14), CTCAE Grade ≥3",0
same,"TEAE Haemoglobin decreased, patients","Total (N = 14), CTCAE Grade ≥3",0
same,"TEAE Headache, patients","Total (N = 14), CTCAE Grade ≥3",0
same,"TEAE Lipase increased, patients","Total (N = 14), CTCAE Grade ≥3",0
same,"TEAE Pain, patients","Total (N = 14), CTCAE Grade ≥3",0
same,"TEAE Platelet count decreased, patients","Total (N = 14), CTCAE Grade ≥3",0
same,"TEAE Proteinuria, patients","Total (N = 14), CTCAE Grade ≥3",0
same,"TEAE Vomiting, patients","Total (N = 14), CTCAE Grade ≥3",0
